In brackets after ≈: the same amount, converted by molar mass.
Tests used:
Candida albicans [1] = test: Antifungal activity against Candida albicans ATCC 90028 assessed as growth inhibition at 0.25 ug/ml after 48 hrs by broth microdilution method relative to control; type: functional; details: ATCC 90028, 48 h, read-out: GI
Candida albicans [2] = test: Antifungal activity against Candida albicans ATCC 90028 assessed as growth inhibition at 0.0313 ug/ml after 48 hrs by broth microdilution method relative to control; type: functional; details: ATCC 90028, 48 h, read-out: GI
[3] = Antifungal activity against Fusarium sambucinum MF1 assessed as radial growth inhibition at 64 ug/ml after 5 to 7 days relative to control; type: functional
Candida albicans [4] = test: Antifungal activity against Candida albicans ATCC 90028 assessed as growth inhibition at 2 ug/ml after 48 hrs by broth microdilution method relative to control; type: functional; details: ATCC 90028, 48 h, read-out: GI
Candida albicans [5] = test: Antifungal activity against Candida albicans ATCC 90028 assessed as growth inhibition at 1 ug/ml after 48 hrs by broth microdilution method relative to control; type: functional; details: ATCC 90028, 48 h, read-out: GI
Candida albicans [6] = test: Antifungal activity against Candida albicans ATCC 90028 assessed as growth inhibition at 0.125 ug/ml after 48 hrs by broth microdilution method relative to control; type: functional; details: ATCC 90028, 48 h, read-out: GI
[7] = Antifungal activity against Fusarium oxysporum MF5 assessed as radial growth inhibition at 64 ug/ml after 5 to 7 days relative to control; type: functional
[8] = Antifungal activity against Colletotrichum coccodes MC1 assessed as radial growth inhibition at 64 ug/ml after 5 to 7 days relative to control; type: functional
Candida albicans [9] = test: Antifungal activity against Candida albicans ATCC 90028 assessed as growth inhibition at 4 ug/ml after 48 hrs by broth microdilution method relative to control; type: functional; details: ATCC 90028, 48 h, read-out: GI
Candida albicans [10] = test: Antifungal activity against Candida albicans ATCC 90028 assessed as growth inhibition at 16 ug/ml after 48 hrs by broth microdilution method relative to control; type: functional; details: ATCC 90028, 48 h, read-out: GI
Candida albicans [11] = test: Antifungal activity against Candida albicans ATCC 90028 assessed as growth inhibition at 8 ug/ml after 48 hrs by broth microdilution method relative to control; type: functional; details: ATCC 90028, 48 h, read-out: GI
Candida albicans [12] = test: Antifungal activity against Candida albicans ATCC 90028 assessed as growth inhibition at 0.5 ug/ml after 48 hrs by broth microdilution method relative to control; type: functional; details: ATCC 90028, 48 h, read-out: GI
Aspergillus niger [13] = test: Antifungal activity against Aspergillus niger ATCC 16404 assessed as radial growth inhibition at 64 ug/ml after 5 to 7 days relative to control; type: functional; details: read-out: GI
Candida albicans [14] = test: Antifungal activity against Candida albicans ATCC 90028 assessed as growth inhibition at 0.0625 ug/ml after 48 hrs by broth microdilution method relative to control; type: functional; details: ATCC 90028, 48 h, read-out: GI
[15] = Toxicity in last instar larval stage of Galleria mellonella assessed as decrease in survival at 0.33% after 96 hrs
[16] = Antifungal activity against Fusarium oxysporum MF5 assessed as radial growth inhibition at 32 ug/ml after 5 to 7 days relative to control; type: functional
[17] = Antifungal activity against Fusarium sambucinum MF1 assessed as radial growth inhibition at 32 ug/ml after 5 to 7 days relative to control; type: functional
Candida albicans [18] = test: Fungicidal activity against Candida albicans ATCC 90028 after 48 hrs by broth microdilution method; type: functional; details: ATCC 90028, 48 h
Aspergillus niger [19] = test: Antifungal activity against Aspergillus niger ATCC 16404 assessed as radial growth inhibition at 32 ug/ml after 5 to 7 days relative to control; type: functional; details: read-out: GI
[20] = Antifungal activity against Colletotrichum coccodes MC1 assessed as radial growth inhibition at 32 ug/ml after 5 to 7 days relative to control; type: functional
Candida albicans [21] = test: Antifungal activity against Candida albicans ATCC 90028 assessed as growth inhibition after 48 hrs by broth microdilution method; type: functional; details: ATCC 90028, 48 h
[22] = Antifungal activity against Colletotrichum coccodes MC1 assessed as radial growth inhibition at 16 ug/ml after 5 to 7 days relative to control; type: functional
[23] = Antifungal activity against Fusarium sambucinum MF1 assessed as radial growth inhibition at 16 ug/ml after 5 to 7 days relative to control; type: functional
[24] = Antifungal activity against Fusarium oxysporum MF5 assessed as radial growth inhibition at 16 ug/ml after 5 to 7 days relative to control; type: functional
Aspergillus niger [25] = test: Antifungal activity against Aspergillus niger ATCC 16404 assessed as radial growth inhibition at 16 ug/ml after 5 to 7 days relative to control; type: functional; details: read-out: GI
Candida albicans [26] = test: Antifungal activity against Candida albicans ATCC 90028 assessed as growth inhibition after 18 to 48 hrs in presence of 1.25 ug/ml fluconazole by checkerboard assay; type: functional
Candida albicans [27] = test: Antifungal activity against Candida albicans ATCC 90028 after 18 to 48 hrs in presence of 5 ug/ml fluconazole by checkerboard assay; type: functional
Candida albicans [28] = test: Fungicidal activity against Candida albicans ATCC 90028 at MIC after 7 days in presence of osmotic protector 0.8 M sorbitol by broth microdilution method; type: functional
Candida albicans [29] = test: Antifungal activity against Candida albicans ATCC 90028 after 18 to 48 hrs in presence of 10 ug/ml fluconazole by checkerboard assay; type: functional
Candida albicans [30] = test: Antifungal activity against Candida albicans ATCC 90028 assessed as fractional inhibitory concentration index after 18 to 48 hrs in presence of fluconazole by checkerboard assay; type: functional
Candida albicans [31] = test: Antifungal activity against Candida albicans ATCC 90028 assessed as growth inhibition after 48 hrs in presence of osmotic protector 0.8 M sorbitol by broth microdilution method; type: functional; details: ATCC 90028, 48 h
Candida albicans [32] = test: Antifungal activity against Candida albicans ATCC 90028 assessed as growth inhibition after 7 days in presence of osmotic protector 0.8 M sorbitol by broth microdilution method; type: functional; details: ATCC 90028, 168 h
[33] = Toxicity in last instar larval stage of Galleria mellonella assessed as survival at 16 ug/ml after 96 hrs
Candida albicans [34] = test: Fungicidal activity against Candida albicans ATCC 90028 at MIC after 48 hrs in presence of osmotic protector 0.8 M sorbitol by broth microdilution method; type: functional
Candida albicans [35] = test: Antifungal activity against Candida albicans ATCC 90028 after 18 to 48 hrs in presence of 80 ug/ml fluconazole by checkerboard assay; type: functional
Candida albicans [36] = test: Antifungal activity against Candida albicans ATCC 90028 after 18 to 48 hrs in presence of 20 ug/ml fluconazole by checkerboard assay; type: functional
Candida albicans [37] = test: Antifungal activity against Candida albicans ATCC 90028 assessed as fractional inhibitory concentration after 18 to 48 hrs in presence of fluconazole by checkerboard assay; type: functional
Candida albicans [38] = test: Antifungal activity against Candida albicans ATCC 90028 after 18 to 48 hrs in presence of 40 ug/ml fluconazole by checkerboard assay; type: functional
Candida albicans [39] = test: Antifungal activity against Candida albicans ATCC 90028 after 18 to 48 hrs in presence of 2.5 ug/ml fluconazole by checkerboard assay; type: functional
Candida albicans [40] = test: Antifungal activity against Candida albicans ATCC 90028 after 18 to 48 hrs in presence of 1.25 ug/ml fluconazole by checkerboard assay; type: functional

SMILES | inhibition of growth at 0.25 µg/mL (Candida albicans [1]) [%] | inhibition of growth at 0.0313 µg/mL (Candida albicans [2]) [%] | growth inhibition (GI) [3] [%] | inhibition of growth at 2 µg/mL (Candida albicans [4]) [%] | inhibition of growth at 1 µg/mL (Candida albicans [5]) [%] | inhibition of growth at 0.125 µg/mL (Candida albicans [6]) [%] | growth inhibition (GI) [7] [%] | growth inhibition (GI) [8] [%] | inhibition of growth at 4 µg/mL (Candida albicans [9]) [%] | inhibition of growth at 16 µg/mL (Candida albicans [10]) [%] | inhibition of growth at 8 µg/mL (Candida albicans [11]) [%] | inhibition of growth at 0.5 µg/mL (Candida albicans [12]) [%] | inhibition of growth at 64 µg/mL (Aspergillus niger [13]) [%] | inhibition of growth at 0.0625 µg/mL (Candida albicans [14]) [%] | also measured
Clc1ccccc1-c1nnn(CCCSc2nc3ccccc3s2)n1 | 98.7 | 98.8 | 5 | 98 | 98.7 | 99 | 0 | 16.7 | 98.7 | 98.8 | 98.6 | 98.6 | 0 | 98.9 | 
O=S(=O)(CCn1nnc(-c2ccccc2Cl)n1)c1ccccc1 | 98.1 | 98.6 | 35.6 | 97.9 | 98.2 | 97.8 | 31.2 | 43.4 | 97.8 | 98.5 | 98 | 98.2 | 17.1 | 98.4 | 
C[S+](C)[O-] [DIMETHYL SULFOXIDE] |  |  |  |  |  |  |  |  |  |  |  |  |  |  | Activity [15]: Non-Toxic
c1ccc(-c2nnn(CCCSc3nc4ccccc4s3)n2)cc1 |  |  | 13 |  |  |  | 0 | 23.4 |  |  |  |  | 4.4 |  | 
O=S(=O)(CCn1nnc(-c2ccc(Cl)cc2)n1)c1ccccc1 | 99.3 | 99 | 1.8 | 99.4 | 99.4 | 99.3 | 1.7 | 18.4 | 99.4 |  | 99.5 | 99.4 | 11.2 |  | 
Cc1ccc(-c2nnn(CCCSc3nc4ccccc4s3)n2)cc1 | 98.6 | 98.8 | 0 | 98.6 | 98.9 | 98.8 | 0 | 33.4 | 98.9 | 98.8 | 99 | 98.7 | 3 | 98.8 | 
c1ccc(-c2nnn(CCCSc3nc4ccccc4o3)n2)cc1 |  |  | 27 |  |  |  | 6 | 43.4 |  |  |  |  | 20.6 |  | 
Clc1ccc(-c2nnn(CCCSc3nc4ccccc4s3)n2)cc1 |  |  | 5 |  |  |  | 0 | 36.7 |  |  |  |  | 0 |  | 
OC(Cn1cncn1)(Cn1cncn1)c1ccc(F)cc1F [FLUCONAZOLE] |  |  |  |  |  |  |  |  |  |  |  |  |  |  | growth inhibition (GI) [16]: 17.6%; growth inhibition (GI) [17]: 67.7%; MFC (Candida albicans [18]): 0.5 µg/mL (≈ 1.63 µM); inhibition of growth at 32 µg/mL (Aspergillus niger [19]): 52.9%; growth inhibition (GI) [20]: 100%; MIC (Candida albicans [21]): 0.25 µg/mL (≈ 0.816 µM)
Cc1ccc(-c2nnn(CCCSc3nc4ccccc4o3)n2)cc1 |  |  | 16 |  |  |  | 0 | 43.4 |  |  |  |  | 11.8 |  | 
C[C@@H]1[C@H](O)[C@@H](C)/C=C/C=C/C=C/C=C/C=C/C=C/C=C/[C@H](O[C@@H]2O[C@H](C)[C@@H](O)[C@H](N)[C@@H]2O)C[C@@H]2O[C@](O)(C[C@@H](O)C[C@@H](O)[C@H](O)CC[C@@H](O)C[C@@H](O)CC(=O)O[C@H]1C)C[C@H](O)[C@H]2C(=O)O [AMPHOTERICIN B] |  |  |  |  |  |  |  |  |  |  |  |  |  |  | growth inhibition (GI) [22]: 86.7%; growth inhibition (GI) [23]: 86%; growth inhibition (GI) [24]: 77%; inhibition of growth at 16 µg/mL (Aspergillus niger [25]): 100%
Clc1ccc(-c2nnn(CCCSc3nc4ccccc4o3)n2)cc1 | 99.2 | 99 | 14.5 | 99.5 | 99.3 | 99.1 | 4 | 46.7 | 98.7 | 99.2 | 99.4 | 99.4 | 11.8 | 99.1 | MIC (Candida albicans [26]): 1.25 µg/mL; Activity (Candida albicans [27]): 99%; Activity (Candida albicans [28]): 100%; Activity (Candida albicans [29]): 99%; MIC (Candida albicans [21]): > 16 µg/mL; fractional inhibitory concentration index (FICI) (Candida albicans [30]): 5.08; MIC (Candida albicans [31]): 1 µg/mL; MIC (Candida albicans [32]): 1 µg/mL; survival at 96 h [33]: 100%; Activity (Candida albicans [34]): 100%; Activity (Candida albicans [35]): 100%; Activity (Candida albicans [36]): 98%; Ratio (Candida albicans [37]): 0.08; Activity (Candida albicans [38]): 100%; Activity (Candida albicans [39]): 100%; Activity (Candida albicans [40]): 100%
Clc1ccccc1-c1nnn(CCCSc2nc3ccccc3o2)n1 |  |  | 14.5 | 99.1 | 99.1 |  | 0 | 33.4 | 99.2 | 99.1 | 99.2 | 98.9 | 6 |  | MIC (Candida albicans [26]): 1.25 µg/mL; Activity (Candida albicans [27]): 100%; Activity (Candida albicans [28]): 97%; Activity (Candida albicans [29]): 100%; MIC (Candida albicans [21]): > 16 µg/mL; MIC (Candida albicans [31]): 1 µg/mL; MIC (Candida albicans [32]): 1 µg/mL; survival at 96 h [33]: 100%; Activity (Candida albicans [35]): 100%; Activity (Candida albicans [36]): 100%; Activity (Candida albicans [38]): 100%; Activity (Candida albicans [39]): 100%; Activity (Candida albicans [40]): 100%
O=S(=O)(CCn1nnc(-c2ccccc2)n1)c1ccccc1 | 99 | 99.1 | 14.5 | 99 | 99 | 98.7 | 17.7 | 41.1 | 98.9 | 99.1 | 99.1 | 98.9 | 18.5 | 99 | 
